This is an account of results in patent US5770573A, “CS-1 peptidomimetics, compositions and methods of using the same” (Cytel Corporation, priority 1995, dated 1998).

Square brackets hold non-standard residues; d marks the D form. Peptide text beside a SMILES is read from it. * marks the point of attachment. Biotin = O=C1N[C@H]2[C@H](CS[C@H]2CCCCC(=O)*)N1; Acetyl(3-pyridyl) = O=C(Cc1cccnc1)*; Cya = N[C@@H](CS(=O)(=O)O)C(=O)O; Isonicotinoyl = O=C(c1ccncc1)*; Morpholide = C1CN(*)CCO1; Piperidide = C1CCN(*)CC1; Pyrrolidide = C1CCN(*)C1; PhAc = O=C(Cc1ccccc1)*; NHBn = c1ccc(CN*)cc1; Ahx = NCCCCCC(=O)O

VLA-4, sequence (P13612 34-1032): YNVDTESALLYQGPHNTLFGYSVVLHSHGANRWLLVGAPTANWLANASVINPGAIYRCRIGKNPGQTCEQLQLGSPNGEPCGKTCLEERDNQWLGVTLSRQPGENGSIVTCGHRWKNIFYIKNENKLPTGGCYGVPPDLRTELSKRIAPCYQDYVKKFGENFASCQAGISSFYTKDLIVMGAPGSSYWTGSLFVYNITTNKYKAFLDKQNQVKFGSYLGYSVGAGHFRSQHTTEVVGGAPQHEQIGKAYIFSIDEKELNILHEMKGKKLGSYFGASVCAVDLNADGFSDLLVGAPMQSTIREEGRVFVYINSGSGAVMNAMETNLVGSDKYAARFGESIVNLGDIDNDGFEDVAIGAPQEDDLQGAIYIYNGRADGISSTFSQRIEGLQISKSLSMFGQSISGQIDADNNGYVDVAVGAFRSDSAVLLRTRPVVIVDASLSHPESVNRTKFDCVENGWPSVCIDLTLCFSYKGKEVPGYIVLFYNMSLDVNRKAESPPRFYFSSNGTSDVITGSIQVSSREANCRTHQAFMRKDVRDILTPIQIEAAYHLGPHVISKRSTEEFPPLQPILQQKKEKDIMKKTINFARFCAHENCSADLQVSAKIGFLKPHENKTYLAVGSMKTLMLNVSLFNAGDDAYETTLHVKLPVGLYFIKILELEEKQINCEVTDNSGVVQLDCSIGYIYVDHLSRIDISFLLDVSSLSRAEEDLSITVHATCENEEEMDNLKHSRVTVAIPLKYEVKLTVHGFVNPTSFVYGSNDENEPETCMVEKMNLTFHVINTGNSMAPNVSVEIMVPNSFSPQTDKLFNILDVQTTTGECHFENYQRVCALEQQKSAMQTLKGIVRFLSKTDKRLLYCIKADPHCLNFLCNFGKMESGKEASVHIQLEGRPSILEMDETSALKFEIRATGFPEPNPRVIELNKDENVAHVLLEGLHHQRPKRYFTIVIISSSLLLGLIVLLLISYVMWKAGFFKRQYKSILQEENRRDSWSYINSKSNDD
VLA-4, sequence (P05556 21-798): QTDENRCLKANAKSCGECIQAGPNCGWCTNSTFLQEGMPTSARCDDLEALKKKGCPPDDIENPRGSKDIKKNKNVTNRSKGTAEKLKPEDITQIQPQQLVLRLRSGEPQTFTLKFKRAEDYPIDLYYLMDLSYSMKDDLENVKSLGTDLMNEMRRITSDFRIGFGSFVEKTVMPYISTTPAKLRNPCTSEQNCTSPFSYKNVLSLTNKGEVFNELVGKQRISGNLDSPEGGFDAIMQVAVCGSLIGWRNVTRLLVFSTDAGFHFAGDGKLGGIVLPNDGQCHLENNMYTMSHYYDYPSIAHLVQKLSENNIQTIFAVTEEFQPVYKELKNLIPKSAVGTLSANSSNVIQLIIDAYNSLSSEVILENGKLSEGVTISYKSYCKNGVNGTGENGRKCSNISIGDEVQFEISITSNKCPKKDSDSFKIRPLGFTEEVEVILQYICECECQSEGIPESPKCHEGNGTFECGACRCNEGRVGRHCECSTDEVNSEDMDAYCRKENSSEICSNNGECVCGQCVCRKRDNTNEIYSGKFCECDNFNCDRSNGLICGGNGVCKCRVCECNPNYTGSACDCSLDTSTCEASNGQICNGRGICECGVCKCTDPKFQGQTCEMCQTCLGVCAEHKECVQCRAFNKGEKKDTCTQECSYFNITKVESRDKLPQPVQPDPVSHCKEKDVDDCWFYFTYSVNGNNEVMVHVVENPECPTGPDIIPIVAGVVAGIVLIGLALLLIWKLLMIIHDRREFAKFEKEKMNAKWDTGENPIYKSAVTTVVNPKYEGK

One experiment addresses VLA-4 (Homo sapiens, UniProt P05556+P13612). Nature of the experiment: In vitro binding inhibition of 51Cr-labeled Jurkat cells to solid phase-bound CS-1 compound (SEQ ID NO:1).
Conditions: not given
Type of experiment: cell-based. Further details: inflammatory cells that contain the VLA-4 receptor [Jurkat cells; host or cells: Jurkat (human T lymphoblastic line). The method, then: Binding inhibition is measured here as a concentration of compound that inhibits one-half the binding between a standard number of Jurkat cells and a standard amount of CS-1 compound bound to the surface of a microtiter plate well. Those concentrations are conveniently expressed as IC50 values, smaller numbers indicating a lower concentration required to inhibit 50 percent binding and therefore greater potency. Further specifics of this assay are provided hereinafter.
Jurkat cells (ATCC TIB 152), a human T lymphoblastic line, labeled with ^51 chromium were used to assay in vitro binding inhibition provided by various compounds discussed herein.
The plates were prepared as follows: The 25-mer CS-1 compound (SEQ ID NO:1) dissolved at 0.5-1 μg/ml in a buffer of 0.1M NaHCO3 at pH 9.5 that also contained 10 μg/ml of bovine serum albumin (BSA) or a conjugate of the CS-1 compound linked to […] (CS-1-OVA) dissolved at 1-2.5 μg/ml in the same buffer was used as the substrate. Each well of the microtiter plates was coated with 50 μl of substrate or buffer alone for controls. The wells were permitted to dry out completely and were then rinsed twice with PBS at pH 7.4. Non-specific binding sites of each well were then blocked using 200 μl per well of RPMI/1 percent BSA for two hours at room temperature.
Jurkat cells (3-5×10^6 cells) were placed into a 15 ml Falcon™ round-bottom tube with a cap. The tube was centrifuged, and the extra medium was then removed.
Two hundred microliters of a ^51 Cr labeling solution were added to the centrifuged cells and maintained in contact with the cells for 90-120 minutes in a warm room. […] Longer contact times provide a greater amount of labeling but lower cell viability.
The labeled cells are washed with (i) complete medium, (ii) 1 mM EDTA/PBS and then (iii) RPM1/1 percent BSA free of serum components. The cells are centrifuged after each washing. The cells are finally resuspended in serum-free RPMI/1 percent BSA at a concentration of 1×10^6 viable cells/ml, which provides a concentration that is diluted by one-half in the assay.
Inhibitor compounds are prepared as stock solutions at 20 mg/ml in DMSO in 1.5 ml cryogenic screwcap vials, and were stored at -70° C. Using Flow™ round-bottom or V-bottom microtiter plates, the inhibitor compounds were prepared at twice the assay concentration in RPMI/1 percent BSA at 60 μl/well.
Four initial dilutions were typically used.
The ^51 Cr-labeled cells ([…] at 60 μl/well) were then admixed with the diluted compound solutions. The admixtures were maintained at room temperature (about 22° C.) for 30 minutes.
One hundred microliters of each inhibitor compound/cell admixture were transferred to the substrate-coated wells. This was done in triplicate for each dilution. The resulting plates were incubated for 30 minutes at 37° C. and then washed gently three times with RPMI/1 percent BSA at 200 μl/well. Binding was observed microscopically, particularly after the second wash.
The bound cells were then lysed by the addition of a 0.5 percent solution of sodium dodecylsulfate in water at 100 μl/well. The resulting solutions were then processed for counting and calculation of IC50 values following usual procedures.
The data of Table 1 are normalized to the binding of SEQ ID NO: 3. […] Multiple assays for the same compound were averaged.
`CC(C)C[C@H](NC(=O)[C@@H]1CCCN1)C(=O)N[C@@H](CC(=O)O)C(=O)N[C@@H](Cc1ccccc1)C(=O)N1CCC[C@@H]1C(N)=O` [951.12] (H-PLDF[dP]-NH2): the “Relative Potency” value turned out to be 61.8.

As for `CC(C)C[C@H](NC(=O)[C@H](Cc1ccccc1)NC(=O)CCCCCNC(=O)CCCC[C@@H]1SC[C@@H]2NC(=O)N[C@@H]21)C(=O)N[C@@H](CC(=O)O)C(=O)N[C@@H](Cc1ccccc1)C(=O)N1CCC[C@@H]1C(N)=O` [951.13] ({Biotin-Ahx}-FLDF[dP]-NH2), the “Relative Potency (prodrug compound)” value stood at 74.5.

With `CC(C)C[C@H](NC(=O)c1ccncc1)C(=O)N[C@@H](CC(=O)O)C(=O)N[C@@H](Cc1ccccc1)C(=O)N1CCC[C@@H]1C(N)=O` [951.20] (Isonicotinoyl-LDF[dP]-NH2), the “Relative Potency” value is 228. Still for that read-out and setting: the same measure for `CC(C)C[C@H](NC(=O)Cc1cccnc1)C(=O)N[C@@H](CC(=O)O)C(=O)N[C@@H](Cc1ccccc1)C(=O)N1CCC[C@@H]1C(N)=O` [951.22] ({Acetyl(3-pyridyl)}-LDF[dP]-NH2): 387; for `CC(=O)N[C@@H](Cc1ccccc1)C(=O)N[C@@H](CC(C)C)C(=O)N[C@@H](CC(=O)O)C(=O)N[C@@H](Cc1ccccc1)C(=O)N1CCC[C@@H]1C(N)=O` [951.42] (Ac-FLDF[dP]-NH2): 35.4; for `CC(=O)N[C@@H](CO)C(=O)N[C@@H](Cc1ccccc1)C(=O)N[C@@H](CC(=O)O)C(=O)N[C@@H](Cc1ccccc1)C(=O)N[C@@H](CO)C(N)=O` [951.46] (Ac-SFDFS-NH2): “.22”.

For `CC(C)CN1C(=O)C(NC(=O)N[C@@H](CC(=O)O)C(=O)N[C@@H](Cc2ccccc2)C(=O)N2CCC[C@@H]2C(N)=O)Cc2ccccc21` (stereo partly shown) [1014.01], the “Relative Potency” value came out at 1.22. Take `CC(C)C[C@H](NC(=O)Cc1ccc(O)c(O)c1)C(=O)N[C@@H](CC(=O)O)C(=O)N[C@@H](Cc1ccccc1)C(=O)N1CCCCC1` [1019.01]: the “Relative Potency” value was determined as 81.4. In the case of `CC(C)CN(CC(C)C)C(=O)N[C@@H](CC(=O)O)C(=O)N[C@H](C(=O)N1CCCCC1)c1ccccc1` [1027.01], the “Relative Potency” value is listed as “.5”. Regarding `CC(C)CN(CCCc1ccccc1)C(=O)N[C@@H](CC(=O)O)C(=O)N[C@@H](Cc1ccccc1)C(=O)N1CCCCC1` [1027.02], the “Relative Potency” value amounted to 0. On the same count and under the same terms, to `O=C(O)C[C@H](NC(=O)N(Cc1ccccc1)Cc1ccccc1)C(=O)N[C@@H](Cc1ccccc1)C(=O)N1CCCCC1` [1027.03] belongs 0; to `CC(C)COC(=O)N[C@@H](CC(=O)O)C(=O)N[C@@H](Cc1ccccc1)C(=O)N1CCCCC1` [1027.04], 0. As for `CC(C)CN(CC(=O)Nc1ccccc1)C(=O)CN(CC(=O)O)C(=O)CNC(=O)C1CCCC1` [1032.01], the “Relative Potency” value is reported as “.42”. Turning to `CC(C)C[C@H](NCc1ccccc1)C(=O)N[C@@H](CC(=O)O)C(=O)N[C@@H](Cc1ccccc1)C(=O)N1CCCCC1` [1033.01], the “Relative Potency” value stood at 5.84.

Still in this experiment, the particulars now being: binding inhibition potency relative to standard compound of SEQ ID NO:3 = 1 (normalized IC50); about one-tenth or less assigned zero.
As for `CC(C)C[C@H](NC(=O)Cc1ccccc1)C(=O)N[C@@H](CC(=O)O)C(=O)N[C@@H](Cc1ccccc1)C(=O)N1CCCCC1` [951.14] (PhAc-Leu-Asp-Phe-Piperidide), the “Relative Potency” value was determined as 239.

For `CC(C)C[C@H](NC(=O)Cc1ccccc1)C(=O)N[C@@H](CC(=O)O)C(=O)N[C@@H](Cc1ccccc1)C(=O)N1CCCC1` [951.15] (PhAc-Leu-Asp-Phe-Pyrrolidide), the “Relative Potency” value stood at 121. Still for that read-out and setting: the same measure for `CC(C)C[C@H](NC(=O)Cc1ccccc1)C(=O)N[C@@H](CC(=O)O)C(=O)N[C@@H](Cc1ccccc1)C(=O)N1CCC[C@H]1CO` [951.17]: 163. Consider `O=C(O)C[C@H](NC1CCN(C(=O)Cc2ccccc2)CC1)C(=O)N[C@@H](Cc1ccccc1)C(=O)N1CCCC1` [992.01], for which the “Relative Potency” value is 0.

`CC(C)C[C@H](NC(=O)Cc1ccccc1)C(=O)N[C@@H](CC(=O)O)C(=O)NC(c1ccccc1)c1ccccc1` [997.01]: the “Relative Potency” value was 2.66. On the same count and under the same terms, to `CC(C)C[C@H](NC(=O)Cc1ccccc1)C(=O)N[C@@H](CC(=O)O)C(=O)NCc1ccccc1` [997.02] (PhAc-Leu-Asp-NHBn) belongs 18.8; to `CC(C)C[C@H](NC(=O)Cc1ccccc1)C(=O)N[C@@H](CC(=O)O)C(=O)NCCN1CCOCC1` [997.03], 12.5; to `CC(C)C[C@H](NC(=O)Cc1ccccc1)C(=O)N[C@@H](CC(=O)O)C(=O)NC1Cc2ccccc2NC1=O` (stereo partly shown) [997.08], 23.5. `CC(C)C[C@H](NC(=O)Cc1ccccc1)C(=O)N[C@@H](CC(=O)O)C(=O)N1CCc2ccccc2C1` [997.09]: the “Relative Potency” value turned out to be 3.13. On the same count and under the same terms, to `CC(C)C[C@H](NC(=O)Cc1ccccc1)C(=O)N[C@@H](CC(=O)O)C(=O)NC1Cc2ccccc2N(CC(C)C)C1=O` (stereo partly shown) [997.10] belongs 6.26. Take `CC(C)C[C@H](NC(=O)Cc1ccccc1)C(=O)N[C@@H](CC(=O)O)C(=O)NC1Cc2ccccc2N(CC(N)=O)C1=O` (stereo partly shown) [997.11]: the “Relative Potency” value was 44.8. The same measure, in the same setting: the same measure for `CC(C)C[C@H](NC(=O)Cc1ccccc1)C(=O)N[C@@H](CC(=O)O)C(=O)N[C@@H](Cc1ccccc1)C(N)=O` [997.12] (PhAc-Leu-Asp-Phe-NH2): “.45”; for `CC(C)C[C@H](NC(=O)Cc1ccccc1)C(=O)N[C@@H](CC(=O)O)C(=O)NNC(=O)OC(C)(C)C` [997.13]: 1.57.

Consider `CC(C)C[C@H](NC(=O)Cc1ccccc1)C(=O)N[C@@H](CC(=O)O)C(=O)NN(Cc1ccccc1)C(=O)C1CCCC1` [997.15], for which the “Relative Potency” value is recorded as 1.28.

In the case of `CC(C)C[C@H](NC(=O)Cc1ccccc1)C(=O)N[C@@H](CC(=O)O)C(=O)NCC(=O)N1CCOCC1` [997.16] (PhAc-Leu-Asp-Gly-Morpholide), the “Relative Potency” value amounted to 9.23. Still for that read-out and setting: to `CC(C)C[C@H](NC(=O)Cc1ccccc1)C(=O)N[C@@H](CC(=O)O)C(=O)NN1Cc2ccccc2NC1=O` [997.17] belongs 1.35; to `CC(C)C[C@H](NC(=O)Cc1ccccc1)C(=O)N[C@@H](CC(=O)O)C(=O)NC1Cc2ccccc2N(CCN2CCOCC2)C1=O` (stereo partly shown) [997.18], 20; to `CC(C)C[C@H](NC(=O)Cc1ccccc1)C(=O)N[C@@H](CC(=O)O)C(=O)N[C@@H](CC(C)C)C(=O)N1CCOCC1` [997.20] (PhAc-Leu-Asp-Leu-Morpholide), 291.

Consider `CC(C)C[C@H](NC(=O)Cc1ccccc1)C(=O)NC(CC(=O)O)(CC(=O)O)C(=O)N[C@@H](Cc1ccccc1)C(=O)N1CCCCC1` [1026.01], for which the “Relative Potency” value worked out at 0.

With `CC(C)C[C@H](NC(=O)Cc1ccccc1)C(=O)NC(C(=O)O)C(=O)N[C@@H](Cc1ccccc1)C(=O)N1CCCCC1` (stereo partly shown) [1026.02], the “Relative Potency” value came out at 0.

In the case of `CC(C)C[C@H](NC(=O)Cc1ccccc1)C(=O)NC(C(=O)N[C@@H](Cc1ccccc1)C(=O)N1CCCCC1)C(C(=O)O)C(=O)O` (stereo partly shown) [1026.04], the “Relative Potency” value came out at 2.32. The same measure, in the same setting: to `CC(C)C[C@H](NC(=O)Cc1ccccc1)C(=O)N[C@@H](CC(=O)O)C(=O)N[C@H]1Cc2ccccc2[C@H]2CCCCN2C1=O` [1026.05] belongs 50.1.

With `CC(C)C[C@H](NC(=O)Cc1ccccc1)C(=O)N[C@@H](CS(=O)(=O)O)C(=O)N[C@@H](Cc1ccccc1)C(=O)N1CCCCC1` [1026.06] (PhAc-Leu-[Cya]-Phe-Piperidide), the “Relative Potency” value came to 0. The same measure, in the same setting: the same measure for `CC(C)C[C@H](NC(=O)Cc1ccccc1)C(=O)N[C@@H](CP(=O)(O)O)C(=O)N[C@@H](Cc1ccccc1)C(=O)N1CCCCC1` [1026.07]: 0; for `CC(C)C[C@H](NC(=O)Cc1ccccc1)C(=O)N[C@@H](CS(N)(=O)=O)C(=O)N[C@@H](Cc1ccccc1)C(=O)N1CCCCC1` [1026.08]: 0; for `CC(C)CN(CC(=O)Nc1ccccc1)C(=O)CN(CC(=O)O)C(=O)CN(Cc1ccccc1)C(=O)C1CCCC1` [1032.02]: “.63”.
